This is an account of results in US6407112B1, “Optically active tetrahydrobenzindole derivative” (Meiji Seika Kaisha, Ltd., priority 1998, dated 2002).

Assay [1] concerns the target T1, 5-HT2 receptor (rat cerebral cortex P2 fraction) (Rattus norvegicus, UniProt P14842).
T1 construct: Rat cerebral cortex was homogenized in 10 volumes of 0.32 M sucrose solution; from tissue; host or cells: rat cerebral cortex, P2 membrane fraction
The assay can be described thus: 5-HT2 receptor-binding assay ([3H]ketanserin). The protocol:
5-HT2 Receptor-binding Assay
Rat cerebral cortex was homogenized in 10 volumes of 0.32 M sucrose solution. The supernatant obtained by centrifuging at 900×g for 10 minutes was further centrifuged at 11,500×g for 20 minutes. The pellet was resuspended in 50 mM Tris-HCl buffer (pH 7.4) and then centrifuged at 39,900×g for 20 minutes. The final pellet was used a P2 fraction.
P2 fraction was incubated in 50 mM tris-HCl buffer (pH 7.4) containing 1 nM [^3H]ketanserin and the compound of the present invention at 37° C. for 15 minutes and terminated by rapid filtration through GF/B filters. The bound radioactivity was determined by liquid scintillation counter. While, non-specific binding was determined in the presence of 10 μM ketanserin. Thus, the specific binding was calculated from the bound radioactivity after the subtraction of non-specific binding.

Assay [2] concerns the target T2, cloned human 5-HT7 receptor (Homo sapiens, UniProt P34969).
T2 construct: expressed in transfected cells
The assay can be described thus: 5-HT7 receptor-binding assay ([3H]-5CT). The note with it: for Selectivity (ratio of Ki (5-HT2) with Ki (5-HT7)): Ki (5-HT2, rat cortex) / Ki (5-HT7, cloned human). The protocol:
5-HT7 Receptor-binding Assay
Membranes from culture cells expressing cloned human 5-HT7 receptor were harvested and homogenized in 50 mM Tris-HCl assay buffer (pH 7.4) containing 10 mM MgCl2 and 0.5 mM EDTA with a potter-type homogenizer, and the suspension was centrifuged at 4° C., 39,000×g for 20 minutes. The resulting pellet was resuspended in the assay buffer at a proportion of 1 ml per an amount of a piece of culture petri dish having a diameter of 10 cm, and homogenized again.
The incubation was terminated by rapid filtration through GB/B filter, washed with 6 ml of ice-cold 50 mM Tris-HCl buffer (pH 7.4). The bound radioactivity was determined by liquid scintillation counter. While, non-specific binding was determined in the presence of 10 μM metergoline. The specific binding was calculated from the bound radioactivity after subtraction of non-specific binding.

The mark [3] stands for this setting: rat cerebral cortex P2 fraction, 1 nM [3H]ketanserin, 37° C., 15 minutes, Ki calculated from IC50, read-out: Receptor Binding Affinity Ki Value (5-HT2).
The mark [4] stands for this setting: membranes of cultured cells expressing cloned human 5-HT7 receptor, 1 nM [3H]-5CT, 37° C., 30 minutes, Ki calculated from IC50, read-out: Receptor Binding Affinity Ki Value (5-HT7).

Structures are written as SMILES. Like-named read-outs stand apart in the source and are kept apart here.

T2 sequence (P34969 whole entry): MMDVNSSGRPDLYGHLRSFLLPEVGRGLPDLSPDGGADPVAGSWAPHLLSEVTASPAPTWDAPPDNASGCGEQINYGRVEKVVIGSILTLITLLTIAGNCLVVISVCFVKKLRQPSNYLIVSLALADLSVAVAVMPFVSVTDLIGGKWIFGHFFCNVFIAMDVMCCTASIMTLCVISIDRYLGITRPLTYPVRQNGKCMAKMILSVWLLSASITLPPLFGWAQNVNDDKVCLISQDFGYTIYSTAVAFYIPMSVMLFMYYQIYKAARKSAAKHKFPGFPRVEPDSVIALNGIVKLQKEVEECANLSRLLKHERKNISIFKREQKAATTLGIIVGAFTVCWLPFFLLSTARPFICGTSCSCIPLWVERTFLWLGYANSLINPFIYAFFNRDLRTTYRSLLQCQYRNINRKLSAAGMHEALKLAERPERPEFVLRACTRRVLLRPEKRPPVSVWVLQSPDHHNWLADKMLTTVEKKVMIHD
T1 sequence (P14842 whole entry): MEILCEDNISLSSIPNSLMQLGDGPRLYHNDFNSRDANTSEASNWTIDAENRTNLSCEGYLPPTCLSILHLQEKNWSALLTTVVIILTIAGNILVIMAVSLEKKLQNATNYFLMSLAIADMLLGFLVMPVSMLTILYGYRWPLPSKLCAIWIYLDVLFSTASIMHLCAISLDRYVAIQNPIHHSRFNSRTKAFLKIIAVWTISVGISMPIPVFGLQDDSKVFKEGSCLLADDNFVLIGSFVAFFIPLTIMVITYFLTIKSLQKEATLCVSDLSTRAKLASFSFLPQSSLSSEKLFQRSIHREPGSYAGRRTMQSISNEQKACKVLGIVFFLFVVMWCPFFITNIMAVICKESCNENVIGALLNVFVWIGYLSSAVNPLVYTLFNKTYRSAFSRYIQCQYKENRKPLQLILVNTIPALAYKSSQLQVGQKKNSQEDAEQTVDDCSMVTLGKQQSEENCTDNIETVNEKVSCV

In the case of `COc1ccccc1N1CCN(CCCCC23CCCc4cccc(c42)NC3=O)CC1` (racemic) [Racemic Mixture of Synthesis Example 14, reference compound], in assay [1] (setting [3]), the Ki (as a rule, the dissociation constant of the complex between target and ligand, obtained from inhibition or displacement) was 60 nM. In addition, the “Selectivity (ratio of Ki (5-HT2) with Ki (5-HT7))” value in assay [2] was determined as 7.

For the compound `O=C1Nc2cccc3c2C1(CCCCN1CC=C(c2ccccc2)CC1)CCC3` (racemic) [Racemic Mixture of Synthesis Example 15, reference compound], the Ki was determined as 92 nM in assay [1] and 9 nM in assay [2]. In addition, in assay [2], the “Selectivity (ratio of Ki (5-HT2) with Ki (5-HT7))” value came out at 10.

As for `CN(C)C(=O)n1c2c(c3ccccc31)CCN(CCCCC13CCCc4cccc(c41)NC3=O)C2` (racemic) [Racemic Mixture of Synthesis Example 17, reference compound], the Ki was 970 nM in assay [1] (setting [3]) and 8 nM in assay [2] (setting [4]). Besides, in assay [2], the “Selectivity (ratio of Ki (5-HT2) with Ki (5-HT7))” value was found to be 121.

As for `O=C1Nc2cccc3c2C1(CCCCN1CCc2ccccc2C1)CCC3` (racemic) [Racemic Mixture of Synthesis Example 18, reference compound], the results for the Ki in assay [1] (setting [3]) and in assay [2] (setting [4]) were 628 nM and 8 nM, respectively. Also, in assay [2], the “Selectivity (ratio of Ki (5-HT2) with Ki (5-HT7))” value is reported as 79.

`CNC(=O)Cn1c2c(c3ccccc31)CCN(CCCCC13CCCc4cccc(c41)NC3=O)C2` (racemic) [Racemic Mixture of Synthesis Example 22, reference compound]: the Ki in assay [1] (setting [3]) is more than 1000 nM; in assay [2] (setting [4]), 3.6 nM. The “Selectivity (ratio of Ki (5-HT2) with Ki (5-HT7))” value in assay [2] was more than 278.

Take `COc1ccccc1N1CCN(CCCC[C@@]23CCCc4cccc(c42)NC3=O)CC1` [Synthesis Example 14, (S)-2a-(4-(4-(2-methoxyphenyl)piperazinyl)butyl)-2a,3,4,5-tetrahydro-1H-benz[cd]indol-2-one]: the values for the Ki in assay [1] (setting [3]) and in assay [2] (setting [4]) were 84 nM and 1.7 nM, respectively. Further, in assay [2], the “Selectivity (ratio of Ki (5-HT2) with Ki (5-HT7))” value was determined as 49.

In assay [1], `O=C1Nc2cccc3c2[C@@]1(CCCCN1CC=C(c2ccccc2)CC1)CCC3` [Synthesis Example 15, (S)-2a-(4-(4-phenyl-1,2,3,6-tetrahydropyridin)-1-ylbutyl)-2a,3,4,5-tetrahydro-1H-benz[cd]indol-2-one] yielded a Ki of 42 nM. For the same compound, in assay [2], the Ki turned out to be 1.3 nM and the “Selectivity (ratio of Ki (5-HT2) with Ki (5-HT7))” value was 32.

For the compound `CN(C)C(=O)n1c2c(c3ccccc31)CCN(CCCC[C@@]13CCCc4cccc(c41)NC3=O)C2` [Synthesis Example 17, (S)-2a-[4-(9-dimethylcarbamoyl-2,3,4,9-tetrahydro-1H-pyrido[3,4-b]indol-2-yl)-butyl]-2a,3,4,5-tetrahydro-1H-benz[cd]indol-2-one], the values for the Ki in assay [1] (setting [3]) and in assay [2] (setting [4]) were more than 1000 nM and 4 nM, respectively. Further, the “Selectivity (ratio of Ki (5-HT2) with Ki (5-HT7))” value in assay [2] was more than 250.

Regarding `O=C1Nc2cccc3c2[C@@]1(CCCCN1CCc2ccccc2C1)CCC3` [Synthesis Example 18, (S)-2a-(4-(1,2,3,4-tetrahydroisoquinolin-2-yl)-butyl)-2a,3,4,5-tetrahydro-1H-benz[cd]indol-2-one], the Ki is more than 1000 nM in assay [1] (setting [3]) and 7.7 nM in assay [2] (setting [4]). Moreover, in assay [2], the “Selectivity (ratio of Ki (5-HT2) with Ki (5-HT7))” value was more than 125.

On to `CNC(=O)Cn1c2c(c3ccccc31)CCN(CCCC[C@@]13CCCc4cccc(c41)NC3=O)C2` [Synthesis Example 22, (S)-2a-(4-(9-methylcarbamoylmethyl-2,3,4,9-tetrahydro-1H-pyrido[3,4-b]indol-2-yl)butyl)-2a,3,4,5-tetrahydro-1H-benz[cd]indol-2-one], for which the Ki in assay [1] (setting [3]) is more than 1000 nM; in assay [2] (setting [4]), 1.5 nM. In addition, in assay [2], the “Selectivity (ratio of Ki (5-HT2) with Ki (5-HT7))” value was more than 667.
